The source of these data is patent publication US8546420B2, “4, 5-ring annulated indole derivatives for treating or preventing of HCV and related viral infections” (Merck Sharp & Dohme Corp., priority 2006, dated 2013).

pIC50: −log10 of the molar value.

The subject of one assay is HCV replicon cells. Put plainly: Cell-Based HCV Replicon Assay. Conditions: Hepatitis C virus, 72 h; replicon RNA level by real time PCR (Taqman), cells harvested on day 3. How it is done:
To measure cell-based anti-HCV activity of the a Compound of Formula (I), replicon cells were seeded at 5000 cells/well in 96-well collagen I-coated Nunc plates in the presence of the Compound of Formula (I). Various concentrations of a Compound of Formula (I), typically in 10 serial 2-fold dilutions, were added to the assay mixture, the starting concentration of the compound ranging from 250 μM to 1 μM. The final concentration of DMSO was 0.5%, fetal bovine serum was 5%, in the assay media. Cells were harvested on day 3 by the addition of 1× cell lysis buffer (Ambion cat #8721). The replicon RNA level was measured using real time PCR (Taqman assay). The amplicon was located in 5B. The PCR primers were: 5B.2F, ATGGACAGGCGCCCTGA; 5B.2R, […]; the probe sequence was FAM-labeled CACGCCATGCGCTGCGG. GAPDH RNA was used as endogenous control and was amplified in the same reaction as NS5B (multiplex PCR) using primers and VIC-labeled probe recommended by the manufacturer (PE Applied Biosystem). The real-time RT-PCR reactions were run on ABI PRISM 7900HT Sequence Detection System using the following program: 48° C. for 30 min, 95° C. for 10 min, 40 cycles of 95° C. for 15 sec, 60° C. for 1 min. The ACT values (CT5B-CTGAPDH) were plotted against the concentration of test compound and fitted to the sigmoid dose-response model using XLfit4 (MDL). EC50 was defined as the concentration of inhibitor necessary to achieve ΔCT=1 over the projected baseline; EC90 the concentration necessary to achieve […] over the baseline. Alternatively, to quantitate the absolute amount of replicon RNA, a standard curve was established by including serially diluted T7 transcripts of replicon RNA in the Taqman assay. All Taqman reagents were from PE Applied Biosystems. Such an assay procedure was described in detail in e.g. Malcolm et al., Antimicrobial Agents and Chemotherapy 50: 1013-1020 (2006).
HCV Replicon assay data for selected Compounds of Formula (I) is provided below in Table 3, wherein the compound numbers correspond to the compound numbering set forth in the above specification. The data is designated as follows: “A” for EC50 values less than 1.0 micromolar (μM), “B” for EC50 values between 1.0 and 10.0 μM and “C” for EC50 values greater than 10.0 μM.

The target of a further assay is T1, HCV NS5B polymerase (Hepatitis C virus genotype 1b, UniProt P26663).
T1 construct: A soluble C-terminal 21-amino acid truncated NS5B enzyme form; polyhistidine (C); made in house; host or cells: Escherichia coli
The assay is described as follows: HCV NS5B Polymerase Inhibition Assay. The format is biochemical. An excerpt:
A chemically synthesized 75-mer version, designated DCoH75, whose sequence matches the 3′-end of D-RNA, and DCoH75ddC, where the 3′-terminal cytidine of DCoH75 is replaced by dideoxycytidine, were used for assaying the NS5B enzyme activity as described in Ferrari et al., 12th International Symposium on HCV and Related Viruses, P-306 (2005). A soluble C-terminal 21-amino acid truncated NS5B enzyme form (NS5B[…]CT21) was produced and purified from Escherichia coli as C-terminal polyhistidine-tagged fusion protein as described in Ferrari et al., J. Virol. 73:1649-1654 (1999). A typical assay contained 20 mM Hepes pH 7.3, 10 mM MgCl2, 60 mM NaCl, 100 μg/ml BSA, 20 units/ml RNasin, 7.5 mM DTT, 0.1 μM ATP/GTP/UTP, 0.026 μM CTP, 0.25 mM GAU, 0.03 μM RNA template, 20 μCi/ml [^33P]-CTP, 2% DMSO, and 30 or 150 nM NS5B enzyme. Reactions were incubated at 22° C. for 2 hours, then stopped by adding 150 mM EDTA, washed in DE81 filter plate in 0.5M di-basic sodium phosphate buffer, pH 7.0, and counted using Packard TopCount after the addition of scintillation cocktail. Polynucleotide synthesis was monitored by the incorporation of radiolabeled CTP. The effect of the Compounds of Formula (I) on the polymerase activity was evaluated by adding various concentrations of a Compound of Formula (I), typically in 10 serial 2-fold dilutions, to the assay mixture. The starting concentrations of the indole derivatives ranged from 200 μM to 1 μM. An IC50 value for the inhibitor, defined as the compound concentration that provides 50% inhibition of polymerase activity, was determined by fitting the cpm data to the Hill equation Y=100/(1+10^((Log IC50−X)*HillSlope)), where X is the logarithm of compound concentration, and Y is the % inhibition. Ferrari et al., 12th International Symposium on HCV and Related Viruses, P-306 (2005) described in detail this assay procedure. It should be noted that such an assay as described is exemplary and not intended to limit the scope of the invention. The skilled practitioner can appreciate that modifications including but not limited to RNA template, primer, nucleotides, NS5B polymerase form, buffer composition, can be made to develop similar assays that yield the same result for the efficacy of the compounds and compositions described in the invention.
NS5B polymerase inhibition data for selected Compounds of Formula (I) is provided below in Table 2, wherein the compound numbers correspond to the compound numbering set forth in the above specification.

T1 sequence (P26663 2420-2989): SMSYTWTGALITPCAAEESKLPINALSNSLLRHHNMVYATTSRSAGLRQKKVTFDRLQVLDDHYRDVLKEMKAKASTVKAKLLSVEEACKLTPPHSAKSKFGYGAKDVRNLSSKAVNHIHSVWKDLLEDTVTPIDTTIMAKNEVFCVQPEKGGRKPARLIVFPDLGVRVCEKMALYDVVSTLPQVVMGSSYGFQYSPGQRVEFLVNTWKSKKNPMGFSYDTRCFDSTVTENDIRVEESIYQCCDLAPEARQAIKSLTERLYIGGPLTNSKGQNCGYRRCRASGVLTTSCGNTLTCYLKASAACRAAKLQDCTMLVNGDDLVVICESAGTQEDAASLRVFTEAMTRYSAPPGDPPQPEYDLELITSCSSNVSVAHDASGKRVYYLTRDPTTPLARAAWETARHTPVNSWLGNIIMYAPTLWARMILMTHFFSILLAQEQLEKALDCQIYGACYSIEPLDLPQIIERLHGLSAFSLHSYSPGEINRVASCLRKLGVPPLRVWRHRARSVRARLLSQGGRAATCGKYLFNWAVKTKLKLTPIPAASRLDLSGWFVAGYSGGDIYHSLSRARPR

One may read the EC50 as the concentration at which the effect is half-maximal. Broadly, the pIC50 is the negative decadic logarithm of the IC50, by convention in mol/L. In the assay with HCV replicon cells, `Nc1ccccc1Cn1c(C(=O)O)c(-c2ccccc2F)c2c3ccccc3ccc21` [Compound 1] had an EC50 above 10 µM. In addition, the pIC50 on HCV NS5B polymerase is below 7.00.

In turn, `O=C(O)c1c(-c2ccccc2F)c2c3ccccc3ccc2n1Cc1ccccc1` [Compound 2] had a pIC50 against HCV NS5B polymerase below 7.00.

On to `Nc1cc(Cn2c(C(=O)O)c(-c3ccccc3F)c3c4ccccc4ccc32)ccn1` [Compound 3], for which the EC50 in the assay on HCV replicon cells was in the range of 1 to 10 µM. The compound further had a pIC50 at HCV NS5B polymerase below 7.00. The like results for `Nc1cc(Cn2c(C(=O)O)c(-c3ccc[nH]c3=O)c3c4ccccc4ccc32)ccn1` [Compound 4] were, in that order, 1 to 10 µM and below 7.00. The like results for `Nc1cc(Cn2c(C(=O)O)c(-c3ccccc3F)c3c4ccccc4ccc32)ncn1` [Compound 5] were, in that order, above 10 µM and below 7.00. On the same counts, the results for `CS(=O)(=O)NC(=O)c1c(-c2ccc[nH]c2=O)c2c3ccccc3ccc2n1Cc1ccnc(N)c1` [Compound 6] are above 10 µM and 7.00 to 7.60.

In the case of `O=C(O)c1cccc(Cn2c(C(=O)O)c(-c3ccccc3F)c3c4ccccc4ccc32)c1` [Compound 7], the EC50 in the assay with HCV replicon cells is above 10 µM. This compound also showed a pIC50 on HCV NS5B polymerase below 7.00. For `O=C(O)c1cccc(Cn2c(C(=O)O)c(-c3ccc[nH]c3=O)c3c4ccccc4ccc32)c1` [Compound 8], the pIC50 at HCV NS5B polymerase was below 7.00. On to `CS(=O)(=O)NC(=O)c1cccc(Cn2c(C(=O)NS(C)(=O)=O)c(-c3ccc[nH]c3=O)c3c4ccccc4ccc32)c1` [Compound 9], for which the pIC50 at HCV NS5B polymerase is 7.00 to 7.60. Consider `COC(=O)c1cccc(Cn2c(C(=O)NS(C)(=O)=O)c(-c3ccc[nH]c3=O)c3c4ccccc4ccc32)c1` [Compound 10], for which, in the assay with HCV replicon cells, the EC50 is 1 to 10 µM. Besides, the pIC50 against HCV NS5B polymerase is above 7.60. Consider `Nc1cc(Cn2c(C(=O)NS(=O)(=O)c3ccccc3)c(-c3ccc[nH]c3=O)c3c4ccccc4ccc32)ccn1` [Compound 11], for which the EC50 in the assay with HCV replicon cells lay within 1 to 10 µM. On HCV NS5B polymerase, this compound showed a pIC50 of 7.00 to 7.60. The like results for `CS(=O)(=O)NC(=O)c1c(-c2ccc[nH]c2=O)c2c3ccccc3ccc2n1Cc1cccc(C(=O)O)c1` [Compound 12] were, in that order, above 10 µM and above 7.60. Regarding `CC(C)(C)S(=O)(=O)NC(=O)c1c(-c2ccc[nH]c2=O)c2c3ccccc3ccc2n1Cc1ccnc(N)c1` [Compound 13], the pIC50 at HCV NS5B polymerase is 7.00 to 7.60.

As for `CCS(=O)(=O)NC(=O)c1c(-c2ccc[nH]c2=O)c2c3ccccc3ccc2n1Cc1ccnc(N)c1` [Compound 14], the EC50 in the assay on HCV replicon cells lay in the range of 1 to 10 µM. Moreover, the pIC50 against HCV NS5B polymerase was 7.00 to 7.60. On the same counts, the results for `Nc1cc(Cn2c(C(=O)NS(=O)(=O)c3ccc(O)cc3)c(-c3ccc[nH]c3=O)c3c4ccccc4ccc32)ccn1` [Compound 15] are 1 to 10 µM and 7.00 to 7.60. The like results for `CS(=O)(=O)Nc1cccc(S(=O)(=O)NC(=O)c2c(-c3ccc[nH]c3=O)c3c4ccccc4ccc3n2Cc2ccc(F)cc2F)c1` [Compound 16] were, in that order, below 1 µM and above 7.60. The like results for `O=C(O)c1c(-c2ccc[nH]c2=O)c2c3ncccc3ccc2n1Cc1cc(F)ccc1F` [Compound 17] were, in that order, 1 to 10 µM and 7.00 to 7.60.

`O=C(O)c1c(-c2ccc[nH]c2=O)c2c3ncccc3ccc2n1Cc1ccccc1F` [Compound 18] had an EC50 in the assay on HCV replicon cells of 1 to 10 µM. The same compound had a pIC50 on HCV NS5B polymerase below 7.00. `O=C(O)c1c(-c2ccc[nH]c2=O)c2c3ncccc3ccc2n1Cc1ccc(F)cc1F` [Compound 19] gave a pIC50 against HCV NS5B polymerase below 7.00. Compound `CS(=O)(=O)NC(=O)c1c(-c2ccc[nH]c2=O)c2c3c(ccc2n1Cc1cc(F)ccc1F)OCCO3` [Compound 20] had an EC50 in the assay on HCV replicon cells below 1 µM. On HCV NS5B polymerase, the pIC50 was above 7.60. The like results for `CS(=O)(=O)NC(=O)c1c(-c2ccc[nH]c2=O)c2c3c(ccc2n1Cc1ccccc1F)CCCO3` [Compound 21] were, in that order, below 1 µM and above 7.60. The like results for `O=C(O)c1c(-c2ccc[nH]c2=O)c2c3c(ccc2n1Cc1ccccc1F)CCCO3` [Compound 22] were, in that order, below 1 µM and above 7.60. The like results for `O=C(O)c1c(-c2ccc[nH]c2=O)c2c3c(ccc2n1Cc1ccccc1F)OCCO3` [Compound 23] were, in that order, 1 to 10 µM and above 7.60. `O=C(O)c1c(-c2ccc[nH]c2=O)c2c3ccccc3c(F)cc2n1Cc1ccccc1F` [Compound 24] displayed an EC50 with HCV replicon cells of 1 to 10 µM. Moreover, the pIC50 against HCV NS5B polymerase is 7.00 to 7.60. On the same counts, the results for `O=C(O)c1c(-c2ccc[nH]c2=O)c2c3c(ccc2n1Cc1cc(F)ccc1F)CCCO3` [Compound 25] are below 1 µM and above 7.60. The like results for `O=C(O)c1c(-c2ccc[nH]c2=O)c2c3c(ccc2n1Cc1cc(F)ccc1F)OCCO3` [Compound 26] were, in that order, below 1 µM and above 7.60.

Take `O=C(O)c1c(-c2ccc[nH]c2=O)c2c3ccccc3c(F)cc2n1Cc1cc([N+](=O)[O-])ccc1F` [Compound 27]: the EC50 in the assay with HCV replicon cells was below 1 µM. On HCV NS5B polymerase, this compound had a pIC50 of 7.00 to 7.60. On the same counts, the results for `CS(=O)(=O)NC(=O)c1c(-c2ccc[nH]c2=O)c2c3c(ccc2n1Cc1ccccc1F)OCCO3` [Compound 28] are below 1 µM and above 7.60. For `CS(=O)(=O)NC(=O)c1c(-c2ccc[nH]c2=O)c2c3c(ccc2n1Cc1cc(F)ccc1F)CCCO3` [Compound 29], the EC50 in the assay with HCV replicon cells was below 1 µM. This compound also showed a pIC50 against HCV NS5B polymerase above 7.60. The like results for `O=C(NS(=O)(=O)C1CC1)c1c(-c2ccc[nH]c2=O)c2c3c(ccc2n1Cc1ccccc1F)CCCO3` [Compound 30] were, in that order, below 1 µM and above 7.60. Consider `O=C(NS(=O)(=O)C1CC1)c1c(-c2ccc[nH]c2=O)c2c3ccccc3c(F)cc2n1Cc1ccccc1F` [Compound 31], for which the EC50 with HCV replicon cells was below 1 µM. Also, the pIC50 against HCV NS5B polymerase is above 7.60.

Take `O=C(NS(=O)(=O)C1CC1)c1c(-c2ccc[nH]c2=O)c2c3c(ccc2n1Cc1cc(F)ccc1F)CCCO3` [Compound 32]: the EC50 with HCV replicon cells is below 1 µM. Also, on HCV NS5B polymerase, the negative-log IC50 (pIC50) is above 7.60. The like results for `O=C(NS(=O)(=O)C1CC1)c1c(-c2ccc[nH]c2=O)c2c3ccccc3c(F)cc2n1Cc1cc([N+](=O)[O-])ccc1F` [Compound 33] were, in that order, below 1 µM and above 7.60.
